Experimental data from PubChem BioAssay (NCI).
“And” between values parts separate entries of the source, which are not always exact repeats. Equal values may be shown once.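 Test compounds were applied to cells in 96-well plates for 48 hours at 5 doses. GI50: concentration for 50% inhibition of growth. TGI denotes the concentration required for complete inhibition of growth.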

How the values were obtained:
Assay in all cases: DTP human tumour cell line panel, 48 h
SN12C renal = system: SN12C renal
SR leukemia = system: SR leukemia
UACC-62 melanoma = system: UACC-62 melanoma
SF-539 CNS = system: SF-539 CNS
SK-MEL-5 melanoma = system: SK-MEL-5 melanoma
786-0 renal = system: 786-0 renal
HCT-116 colon = system: HCT-116 colon
NCI/ADR-RES ovarian = system: NCI/ADR-RES ovarian
HCT-15 colon = system: HCT-15 colon
SNB-75 CNS = system: SNB-75 CNS

| SMILES | GI50 (SN12C renal) [µM] | TGI (SN12C renal) | GI50 (SR leukemia) [µM] | TGI (SR leukemia) | GI50 (UACC-62 melanoma) | TGI (UACC-62 melanoma) | GI50 (SF-539 CNS) | TGI (SF-539 CNS) | GI50 (SK-MEL-5 melanoma) [µM] | TGI (SK-MEL-5 melanoma) | GI50 (786-0 renal) | TGI (786-0 renal) | GI50 (HCT-116 colon) | TGI (HCT-116 colon) | GI50 (NCI/ADR-RES ovarian) | TGI (NCI/ADR-RES ovarian) | GI50 (HCT-15 colon) [µM] | TGI (HCT-15 colon) | GI50 (SNB-75 CNS) [µM] | TGI (SNB-75 CNS) |
| --- | --- | --- | --- | --- | --- | --- | --- | --- | --- | --- | --- | --- | --- | --- | --- | --- | --- | --- | --- | --- |
| O=C(CN1CCN(c2ncccn2)CC1)Nc1ccc(Cl)cc1C(=O)c1ccccc1Cl | > 100 | > 100 µM | 67.8 | > 100 µM | 92.8 µM | > 100 µM | > 100 µM | > 100 µM | 52.4 | > 100 µM | 62 µM | > 100 µM | 78.7 µM | > 100 µM | > 100 µM | > 100 µM | > 100 | > 100 µM | 54.9 | > 100 µM |
| Nc1nc(SCc2ccccn2)c2ncn(C3CCCC3)c2n1 |  | > 100 µM |  | > 100 µM |  | > 100 µM |  |  |  | > 100 µM |  | > 100 µM |  | > 100 µM |  | > 100 µM |  | > 100 µM |  | > 100 µM |
| C[C@@H]1C[C@@H](O)[C@]2(O)O[C@@H]3C[C@@]4(C=O)[C@@H](CC[C@@H]5[C@@H]4CC[C@]4(C)[C@@H](C6=CC(=O)OC6)CC[C@]54O)C[C@H]3O[C@@H]2O1 | 0.005 | 0.0897 µM and 0.144 µM and 0.0759 µM | 0.013 | 0.0128 µM and 0.0317 µM | 0.0515 µM and 0.0216 µM | 0.0465 µM and 0.213 µM and 0.0895 µM | 0.015 µM and 0.005 µM | 0.0146 µM and 0.037 µM and 0.0144 µM | 0.0247 | 0.0303 µM and 0.055 µM and 0.0584 µM | 0.0212 µM and 0.005 µM | 0.0124 µM and 0.0611 µM and 0.0222 µM | 0.0197 µM | 0.0532 µM and 0.122 µM |  | 0.118 µM | 0.06 | 0.0605 µM and 0.25 µM | 0.051 | 0.0919 µM and 0.22 µM and 0.288 µM |
| COc1cccc(C2CC(C)(N3CCCC3)Oc3cc4c(cc32)OCO4)c1O (stereo not drawn) |  | 84.9 µM |  | 31.6 µM |  | > 90.1 µM |  | 46.1 µM |  | > 62.4 µM |  | > 100 µM |  | > 63.6 µM |  | 62.4 µM |  | 70 µM |  | 53.9 µM |
| N#CCC1COc2ccccc2O1 (stereo not drawn) |  | > 10 µM |  | > 10 µM |  | > 10 µM |  | > 10 µM |  | > 10 µM |  | > 10 µM |  | > 10 µM |  | > 10 µM |  | > 10 µM |  | > 10 µM |
| COc1cc(C2CC(c3ccc(C)cc3)=NN2C=O)ccc1Oc1ccnc2cc(Cl)ccc12 (stereo not drawn) | > 50 | > 50 µM | > 50 | > 50 µM | 11.2 µM | > 50 µM | 3.85 µM | 27 µM | > 50 | > 50 µM | 5.07 µM | 19.6 µM | 2.5 µM | > 50 µM | > 50 µM | > 50 µM | > 50 | > 50 µM | 1.13 | 6.92 µM |
| COc1cc(C2C=C(c3cccc(NC(C)=O)c3)Nc3ncnn32)cc(OC)c1OC (stereo not drawn) | 0.489 | > 100 µM | 0.437 |  | 0.262 µM | > 100 µM | 0.367 µM | 2 µM | 0.397 | 22.2 µM | 0.615 µM | > 100 µM | 0.424 µM | > 70.2 µM | 8.04 µM | 63.7 µM | 2.02 | > 100 µM | 4.14 | > 100 µM |
| COc1ccc(C(=O)/C(Br)=C/C(=O)O)cc1 | 53.7 | 228 µM and 183 µM | 19.1 | > 86 µM and 321 µM | 12.3 µM | 45.3 µM and 32.3 µM | 9.18 µM and 27.3 µM | 90.7 µM and 87.3 µM | 12.7 | 39.6 µM and 47.7 µM | 10.8 µM and 30.7 µM | 56.1 µM and 99.1 µM | 25.9 µM and 25.4 µM | 81.3 µM and 65.8 µM | 18.3 µM | 387 µM and 116 µM | 10.6 | 101 µM and 94.4 µM |  | 145 µM and 186 µM |
| CCOC(=O)c1c2c(n3ccc(NC(=O)CCN4CCCC4)cc13)C(=O)c1ncccc1C2=O | 1.43 | 3.47 µM |  | 1.39 µM | 1.39 µM | 3.22 µM | 1.52 µM | 3.19 µM | 15.1 | 35 µM | 0.214 µM | 1.69 µM | 0.175 µM | 1.94 µM | 1.27 µM | 4.86 µM |  |  | 1.05 | 2.41 µM |
| C=CCn1c2c(c3ccccc3c1=O)C(=O)c1ccccc1-2 |  | > 100 µM |  | > 100 µM |  | > 100 µM |  | > 100 µM |  | > 100 µM |  | > 100 µM |  | > 100 µM |  | > 100 µM |  | > 100 µM |  | > 100 µM |
| COc1ccc2nc(N/N=C(\C)c3ccccn3)cc(C)c2c1 | 0.317 | 1.71 µM | 0.0592 | 0.452 µM | 0.275 µM | 1.01 µM | 0.269 µM | 1.23 µM | 0.244 | 1.12 µM | 0.284 µM | 1.21 µM | 0.363 µM | 1.13 µM | 0.274 µM |  | 0.0916 | 1.65 µM | 1.82 | 7.49 µM |
| CN1CC[C@@H](c2c(O)cc(O)c3c(=O)cc(-c4ccccc4Cl)oc23)[C@@H](O)C1 | 0.213 | 13.2 µM | 0.014 | 0.0468 µM and 0.277 µM | 0.0571 µM and 0.0424 µM | 0.133 µM and 0.182 µM and 0.102 µM | 0.0688 µM and 0.0197 µM | 0.141 µM and 0.057 µM and 0.148 µM | 0.0631 | 0.265 µM and 0.182 µM | 0.108 µM | 17.9 µM | 0.0338 µM and 0.0258 µM | 27.5 µM | 0.256 µM and 0.0763 µM |  | 0.0476 |  | 0.0975 | 0.25 µM and 0.0894 µM |
| O=C1NCc2ccc3c(-c4cccc(Cl)c4)c[nH]c3c21 | 0.438 | > 50 µM | 0.0849 | > 50 µM | 0.278 µM | > 50 µM | 0.166 µM | 3.29 µM | 0.269 | > 20.4 µM | 0.276 µM | > 50 µM | 0.217 µM | 9.07 µM | 0.175 µM | > 50 µM | 0.163 | > 50 µM |  |  |
| Cc1cc(-c2ncc(CC(=O)Nc3ccc(-c4cnccn4)cn3)cc2C)ccn1 | 91.7 | > 100 µM | 18.4 | > 100 µM | 22.1 µM | > 100 µM | 26.1 µM | > 100 µM | 6.69 | 29.6 µM | > 100 µM | > 100 µM | 49 µM | > 100 µM | 17.6 µM | > 100 µM | 38.4 | > 100 µM | 13.8 | > 100 µM |
